Test results: ChEMBL document CHEMBL1127356, “(Fluorocyclopropyl)quinolones. 2. Synthesis and Stereochemical structure-activity relationships of chiral 7-(7-amino-5-azaspiro[2.4]heptan-5-yl)-1-(2-fluorocyclopropyl)quinolone antibacterial agents” (J Med Chem, 1994)
Converted amounts (≈) assume the structure as drawn.

How the values were obtained:
[1] = Maximum concentration in plasma was determined by oral administration to rats at 20 mg/kg; type: ADME, organism-based; set-up: dose 20 mg/kg, route oral; conditions: rat
[2] = Urinary recovery at 20 mg/kg was determined by oral administration to rats in unchanged form of compound; type: ADME, organism-based; set-up: dose 20 mg/kg, route oral; conditions: rat, urine, read-out: Urinary recovery
Rattus norvegicus [3] = assay: Urinary recovery by oral administration to rats at 20 mg/kg in conjugate form of compound; type: ADME, organism-based, Urine; set-up: dose 20 mg/kg, route oral; conditions: in vivo
Enterobacter cloacae [4] = assay: Minimum inhibitory concentration in vitro against Enterobacter cloacae (03400); type: functional
Escherichia coli = assay: Minimum inhibitory concentration in vitro against Escherichia coli (NIHJ); type: functional
Klebsiella pneumoniae = assay: Minimum inhibitory concentration in vitro against Klebsiella pneumoniae (type-2); type: functional
Pseudomonas aeruginosa = assay: Minimum inhibitory concentration in vitro against Pseudomonas aeruginosa (32104); type: functional
Proteus vulgaris = assay: Minimum inhibitory concentration in vitro against Proteus vulgaris (08601); type: functional
Staphylococcus aureus [5] = assay: Minimum inhibitory concentration in vitro against Staphylococcus aureus (209P); type: functional
Streptococcus pyogenes = assay: Minimum inhibitory concentration in vitro against Streptococcus pyogenes (G36); type: functional
[6] = test system: Staphylococcus epidermidis; assay: Minimum inhibitory concentration in vitro against Staphylococcus epidermis (56556); type: functional
Serratia marcescens = assay: Minimum inhibitory concentration in vitro against […]; type: functional
Enterococcus faecalis = assay: Minimum inhibitory concentration in vitro against Streptococcus faecalis (ATCC 19433); type: functional
Staphylococcus aureus [7] = assay: Minimum inhibitory concentration in vitro against […] (209P); type: functional
[8] = test system: Staphylococcus epidermidis; assay: Minimum inhibitory concentration in vitro against […] (56556); type: functional
Rattus norvegicus [9] = assay: Urinary recovery by oral administration to rats in conjugate form of compound at 20 mg/kg; type: ADME, organism-based, Urine; set-up: dose 20 mg/kg, route oral; conditions: in vivo
[10] = Urinary recovery by oral administration to rats in unchanged form of compound at 20 mg/kg; type: ADME, organism-based; set-up: dose 20 mg/kg, route oral; conditions: rat, urine, read-out: Urinary recovery
Enterobacter cloacae [11] = assay: Minimum inhibitory concentration in vitro against […] (03400); type: functional
Staphylococcus aureus [12] = assay: microbe, parasite or virus in culture
Description: Minimum inhibitory concentration against Streptococcus aureus (209P)

[13] = Enterobacter cloacae, read-out: MIC
[14] = Escherichia coli, read-out: MIC
[15] = Klebsiella pneumoniae, read-out: MIC
[16] = Pseudomonas aeruginosa, read-out: MIC
[17] = Proteus vulgaris, read-out: MIC
[18] = Streptococcus pyogenes, read-out: MIC
[19] = Serratia marcescens, read-out: MIC
[20] = Enterococcus faecalis, ATCC 19433, read-out: MIC
[21] = Staphylococcus aureus, read-out: MIC
[22] = Staphylococcus epidermidis, read-out: MIC

MIC (Escherichia coli; [14]) [µg/mL] | Structure (SMILES) | MIC (Enterobacter cloacae [4]; [13]) [µg/mL] | MIC (Klebsiella pneumoniae; [15]) [µg/mL] | MIC (Pseudomonas aeruginosa; [16]) [µg/mL] | MIC (Proteus vulgaris; [17]) [µg/mL] | MIC (Streptococcus pyogenes; [18]) [µg/mL] | MIC (Serratia marcescens; [19]) [µg/mL] | MIC (Enterococcus faecalis; [20]) [µg/mL] | MIC (Staphylococcus aureus [7]; [21]) [µg/mL] | MIC [8, 22] [µg/mL] | MIC (Klebsiella pneumoniae) [µg/mL] | other results
0.006 (≈ 0.0156 µM) | NC1CCN(c2c(F)cc3c(=O)c(C(=O)O)cn([C@@H]4C[C@@H]4F)c3c2Cl)C1 (single isomer, unassigned) | 0.006 (≈ 0.0156 µM) | 0.05 (≈ 0.13 µM) | 0.05 (≈ 0.13 µM) | 0.006 (≈ 0.0156 µM) | 0.1 (≈ 0.261 µM) | 0.025 (≈ 0.0651 µM) | 0.2 (≈ 0.521 µM) |  |  |  | Cmax [1]: 2000 ng/mL; dose excreted [2]: 12%; Urinary recovery (Rattus norvegicus [3]): 4%; MIC (Staphylococcus aureus [5]): 0.013 µg/mL (≈ 0.0339 µM); MIC [6]: 0.05 µg/mL (≈ 0.13 µM)
 | N[C@@H]1CN(c2c(F)cc3c(=O)c(C(=O)O)cn(C4CC4F)c3c2Cl)CC12CC2 (stereo in doubt; 38) |  |  |  |  |  | 0.2 (≈ 0.488 µM) |  |  |  | 0.2 (≈ 0.488 µM) | MIC (Enterobacter cloacae [4]): 0.2 µg/mL (≈ 0.488 µM); MIC (Escherichia coli): 0.05 µg/mL (≈ 0.122 µM); MIC (Pseudomonas aeruginosa): 1.56 µg/mL (≈ 3.81 µM); MIC (Proteus vulgaris): 0.1 µg/mL (≈ 0.244 µM); MIC (Staphylococcus aureus [7]): 0.78 µg/mL (≈ 1.9 µM); MIC (Streptococcus pyogenes): 3.13 µg/mL (≈ 7.64 µM); MIC [8]: 0.78 µg/mL (≈ 1.9 µM); MIC (Enterococcus faecalis): 3.13 µg/mL (≈ 7.64 µM)
< 0.006 | N[C@H]1CN(c2c(F)cc3c(=O)c(C(=O)O)cn(C4CC4)c3c2Cl)CC12CC2 | 0.006 (≈ 0.0153 µM) | 0.025 (≈ 0.0638 µM) | 0.05 (≈ 0.128 µM) | 0.006 (≈ 0.0153 µM) | 0.1 (≈ 0.255 µM) | 0.025 (≈ 0.0638 µM) | 0.1 (≈ 0.255 µM) | 0.013 (≈ 0.0332 µM) | 0.025 (≈ 0.0638 µM) |  | Cmax [1]: 3400 ng/mL; Urinary recovery (Rattus norvegicus [9]): 7%; dose excreted [10]: 7%
0.013 (≈ 0.0339 µM) | N[C@H]1CCN(c2c(F)cc3c(=O)c(C(=O)O)cn([C@H]4C[C@H]4F)c3c2Cl)C1 | 0.025 (≈ 0.0651 µM) |  | 0.1 (≈ 0.261 µM) | 0.013 (≈ 0.0339 µM) | 0.2 (≈ 0.521 µM) | 0.05 (≈ 0.13 µM) | 0.2 (≈ 0.521 µM) | 0.025 (≈ 0.0651 µM) | 0.05 (≈ 0.13 µM) | 0.05 (≈ 0.13 µM) | 
< 0.006 | N[C@@H]1CCN(c2c(F)cc3c(=O)c(C(=O)O)cn(C4CC4)c3c2Cl)C1 |  | 0.025 (≈ 0.0683 µM) | 0.05 (≈ 0.137 µM) | 0.006 (≈ 0.0164 µM) | 0.1 (≈ 0.273 µM) | 0.025 (≈ 0.0683 µM) | 0.1 (≈ 0.273 µM) | 0.025 (≈ 0.0683 µM) | 0.05 (≈ 0.137 µM) |  | Cmax [1]: 3900 ng/mL; Urinary recovery (Rattus norvegicus [9]): 5%; dose excreted [10]: 24%; MIC (Enterobacter cloacae [11]): 0.006 µg/mL (≈ 0.0164 µM)
0.05 (≈ 0.128 µM) | N[C@@H]1CN(c2c(F)cc3c(=O)c(C(=O)O)cn(C4CC4)c3c2Cl)CC12CC2 | 0.05 (≈ 0.128 µM) | 0.05 (≈ 0.128 µM) | 0.39 (≈ 0.995 µM) | 0.05 (≈ 0.128 µM) | 0.78 (≈ 1.99 µM) | 0.1 (≈ 0.255 µM) | 0.39 (≈ 0.995 µM) | 0.1 (≈ 0.255 µM) | 0.1 (≈ 0.255 µM) |  | 
 | N[C@H]1CN(c2c(F)cc3c(=O)c(C(=O)O)cn(C4CC4F)c3c2Cl)CC12CC2 (stereo in doubt; 39) |  |  |  |  |  |  |  |  |  | 0.39 (≈ 0.952 µM) | MIC (Enterobacter cloacae [4]): 0.1 µg/mL (≈ 0.244 µM); MIC (Escherichia coli): 0.05 µg/mL (≈ 0.122 µM); MIC (Pseudomonas aeruginosa): 1.56 µg/mL (≈ 3.81 µM); MIC (Proteus vulgaris): 0.1 µg/mL (≈ 0.244 µM); MIC (Staphylococcus aureus [7]): 0.78 µg/mL (≈ 1.9 µM); MIC [8]: 0.78 µg/mL (≈ 1.9 µM); MIC (Serratia marcescens): 0.39 µg/mL (≈ 0.952 µM); MIC (Enterococcus faecalis): 6.25 µg/mL (≈ 15.3 µM)
 | O=C(O)c1cn(C2CC2)c2cc(N3CCNCC3)c(F)cc2c1=O [CIPROFLOXACIN] |  | 0.05 (≈ 0.151 µM) | 0.1 (≈ 0.302 µM) | 0.013 (≈ 0.0392 µM) | 1.56 (≈ 4.71 µM) | 0.05 (≈ 0.151 µM) | 1.56 (≈ 4.71 µM) |  | 0.2 (≈ 0.604 µM) |  | MIC (Staphylococcus aureus [12]): 0.1 µg/mL (≈ 0.302 µM)
 | N[C@H]1CN(c2c(F)cc3c(=O)c(C(=O)O)cn(C4CC4F)c3c2Cl)CC12CC2 (stereo in doubt; 40) |  |  |  |  | > 12.5 | 0.78 (≈ 1.9 µM) | > 12.5 |  |  | 1.56 (≈ 3.81 µM) | MIC (Enterobacter cloacae [4]): 0.78 µg/mL (≈ 1.9 µM); MIC (Escherichia coli): 0.39 µg/mL (≈ 0.952 µM); MIC (Pseudomonas aeruginosa): 6.25 µg/mL (≈ 15.3 µM); MIC (Proteus vulgaris): 0.39 µg/mL (≈ 0.952 µM); MIC (Staphylococcus aureus [7]): 3.13 µg/mL (≈ 7.64 µM); MIC [8]: 3.13 µg/mL (≈ 7.64 µM)
 | N[C@@H]1CN(c2c(F)cc3c(=O)c(C(=O)O)cn(C4CC4F)c3c2Cl)CC12CC2 (stereo in doubt; 37) |  |  |  |  |  |  |  |  |  | 0.05 (≈ 0.122 µM) | MIC (Enterobacter cloacae [4]): 0.013 µg/mL (≈ 0.0317 µM); MIC (Escherichia coli): 0.006 µg/mL (≈ 0.0146 µM); MIC (Pseudomonas aeruginosa): 0.39 µg/mL (≈ 0.952 µM); MIC (Proteus vulgaris): 0.025 µg/mL (≈ 0.061 µM); MIC (Staphylococcus aureus [7]): 0.1 µg/mL (≈ 0.244 µM); MIC (Streptococcus pyogenes): 0.39 µg/mL (≈ 0.952 µM); MIC [8]: 0.1 µg/mL (≈ 0.244 µM); MIC (Serratia marcescens): 0.1 µg/mL (≈ 0.244 µM); MIC (Enterococcus faecalis): 0.78 µg/mL (≈ 1.9 µM)

Structure (SMILES) | MIC (Escherichia coli; [14]) [µg/mL] | MIC (Enterobacter cloacae [4]; [13]) [µg/mL] | MIC (Klebsiella pneumoniae; [15]) [µg/mL] | MIC (Pseudomonas aeruginosa; [16]) [µg/mL] | MIC (Proteus vulgaris; [17]) [µg/mL] | MIC (Streptococcus pyogenes; [18]) [µg/mL] | MIC (Serratia marcescens; [19]) [µg/mL] | MIC (Enterococcus faecalis; [20]) [µg/mL] | MIC (Staphylococcus aureus [7]; [21]) [µg/mL] | MIC [8, 22] [µg/mL] | MIC (Klebsiella pneumoniae) [µg/mL] | other results
N[C@H]1CN(c2c(F)cc3c(=O)c(C(=O)O)cn(C4C[C@H]4F)c3c2Cl)CC12CC2 (single isomer, unassigned) | 0.05 (≈ 0.122 µM) | 0.05 (≈ 0.122 µM) | 0.1 (≈ 0.244 µM) | 0.78 (≈ 1.9 µM) | 0.05 (≈ 0.122 µM) | 0.2 (≈ 0.488 µM) | 0.5 (≈ 1.22 µM) | 0.39 (≈ 0.952 µM) | 0.1 (≈ 0.244 µM) | 0.2 (≈ 0.488 µM) |  | 
N[C@@H]1CN(c2c(F)cc3c(=O)c(C(=O)O)cn(C4C[C@H]4F)c3c2Cl)CC12CC2 (single isomer, unassigned) | 0.013 (≈ 0.0317 µM) | 0.013 (≈ 0.0317 µM) | 0.025 (≈ 0.061 µM) | 0.2 (≈ 0.488 µM) | 0.013 (≈ 0.0317 µM) | 0.2 (≈ 0.488 µM) | 0.05 (≈ 0.122 µM) | 0.2 (≈ 0.488 µM) | 0.025 (≈ 0.061 µM) | 0.05 (≈ 0.122 µM) |  | 
NC1CN(c2c(F)cc3c(=O)c(C(=O)O)cn([C@@H]4C[C@@H]4F)c3c2Cl)CC12CC2 (single isomer, unassigned) [SITAFLOXACIN ANHYDROUS] | < 0.006 | 0.006 (≈ 0.0146 µM) | 0.025 (≈ 0.061 µM) | 0.05 (≈ 0.122 µM) | 0.006 (≈ 0.0146 µM) | 0.05 (≈ 0.122 µM) | 0.025 (≈ 0.061 µM) | 0.1 (≈ 0.244 µM) | 0.013 (≈ 0.0317 µM) | 0.025 (≈ 0.061 µM) |  | Cmax [1]: 2600 ng/mL; Urinary recovery (Rattus norvegicus [9]): 1%; dose excreted [10]: 22%
N[C@H]1CN(c2c(F)cc3c(=O)c(C(=O)O)cn(C4C[C@@H]4F)c3c2Cl)CC12CC2 (single isomer, unassigned) | 0.025 (≈ 0.061 µM) | 0.025 (≈ 0.061 µM) | 0.05 (≈ 0.122 µM) | 0.39 (≈ 0.952 µM) | 0.025 (≈ 0.061 µM) | 0.1 (≈ 0.244 µM) | 0.1 (≈ 0.244 µM) | 0.78 (≈ 1.9 µM) | 0.1 (≈ 0.244 µM) | 0.1 (≈ 0.244 µM) |  | 
